Reference: the supplement of paper PMC10307832

Key:
Test in all cases: relative viability (nuclei count vs DMSO), 5 days (fraction); higher = more cells survive
[1] = compound: C(C(=O)C(=O)O)Br [Bromopyruvate] + Cc1nc(NC(=O)N2CCC[C@H]2C(N)=O)sc1-c1ccnc(C(C)(C)C(F)(F)F)c1 [Alpelisib] (partner 2 µM)
Procedure, shortened: (§1)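 Values are medians from duplicate plates. Each reflects relative viability, defined as the nuclei count of treated wells over that of vehicle wells. Lung cancer cell lines in 1536-well plates were pin-tool dosed one day after seeding with one drug alone or with a fixed anchor-drug dose plus five library-drug doses (not always all listed) in √10 steps, then fixed, stained and imaged at 4× after 5 days.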

[2] = compound: C(C(=O)C(=O)O)Br [Bromopyruvate] + N=C(N)NC(=N)NCCc1ccccc1 [Phenformin] (partner 250 µM)
Procedure, shortened: as §1

Bicalutamide + Alpelisib = compound: CC(O)(CS(=O)(=O)c1ccc(F)cc1)C(=O)Nc1ccc(C#N)c(C(F)(F)F)c1 [Bicalutamide] + Cc1nc(NC(=O)N2CCC[C@H]2C(N)=O)sc1-c1ccnc(C(C)(C)C(F)(F)F)c1 [Alpelisib] (partner 2 µM)
Procedure, shortened: as §1

[3] = compound: CC(O)(CS(=O)(=O)c1ccc(F)cc1)C(=O)Nc1ccc(C#N)c(C(F)(F)F)c1 [Bicalutamide] + Nc1nc2[nH]cc(CCc3ccc(C(=O)N[C@@H](CCC(=O)O)C(=O)O)cc3)c2c(=O)[nH]1 [Pemetrexed] (partner 0.2 µM)
Procedure, shortened: as §1

Q: Which results are given for UMC-11?
A: relative viability ([1]; first compound 1 µM): 1.12; relative viability ([1]; first compound 3.162 µM): 1.01; relative viability ([1]; first compound 10 µM): 0.983; relative viability ([1]; first compound 31.62 µM): 0.997; relative viability ([1]; first compound 100 µM): 1.01; relative viability ([2]; first compound 1 µM): 0.343; relative viability ([2]; first compound 3.162 µM): 0.328; relative viability ([2]; first compound 10 µM): 0.314; relative viability ([2]; first compound 31.62 µM): 0.329; relative viability ([2]; first compound 100 µM): 0.292; relative viability (Bicalutamide + Alpelisib; first compound 0.08 µM): 1.05; relative viability (Bicalutamide + Alpelisib; first compound 0.253 µM): 0.9; relative viability (Bicalutamide + Alpelisib; first compound 0.8 µM): 1.12; relative viability (Bicalutamide + Alpelisib; first compound 2.53 µM): 0.976; relative viability ([3]; first compound 0.08 µM): 0.83; relative viability ([3]; first compound 0.253 µM): 0.732; relative viability ([3]; first compound 0.8 µM): 0.829; relative viability ([3]; first compound 2.53 µM): 0.756
